Test [1] deals with T1, ALK (Homo sapiens, UniProt Q9UM73).
T1 construct: host or cells: baculovirus expression system
The experiment in a line: ALK Kinase Assay (ELISA/TRF, PLC-γ substrate). Format: biochemical. As to conditions: read-out: ALK Potency. In a few lines:
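PLC-γ substrate coated at 10 μg/mL in TBS; reaction started with 30 ng/ml ALK, run 15 min at 37° C. Phosphoproduct detected by TRF with Eu-N1-labeled PT66 anti-phosphotyrosine antibody. IC50 from sigmoidal variable-slope fit of percent inhibition versus log concentration.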
For orientation: An ELISA detects its analyte on a solid surface through an enzyme-linked reagent.

Test [2] addresses T2, JAK2 (Homo sapiens, UniProt O60674).
T2 construct: host or cells: baculovirus expression system
Nature of the test: Recombinant Human JAK2 Kinase Assay (TRF). Format: biochemical. As to conditions: read-out: JAK2 Potency. In a few lines:
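Kinase activity of baculovirus-expressed JAK2 is followed on a surface-immobilised biotinylated peptide, with the reaction run for 20 min at room temperature in buffer containing 0.2 μM ATP and manganese. Phosphorylation is read with Eu-N1 PY100 antibody.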

The mark [3] stands for this setting: ALK kinase inhibition, 1 μM ATP.
Where [4] appears, read: JAK2 kinase inhibition, 0.2 μM ATP.

Where two headings read alike, the source gives them in different places.

T1 sequence (Q9UM73 19-1620): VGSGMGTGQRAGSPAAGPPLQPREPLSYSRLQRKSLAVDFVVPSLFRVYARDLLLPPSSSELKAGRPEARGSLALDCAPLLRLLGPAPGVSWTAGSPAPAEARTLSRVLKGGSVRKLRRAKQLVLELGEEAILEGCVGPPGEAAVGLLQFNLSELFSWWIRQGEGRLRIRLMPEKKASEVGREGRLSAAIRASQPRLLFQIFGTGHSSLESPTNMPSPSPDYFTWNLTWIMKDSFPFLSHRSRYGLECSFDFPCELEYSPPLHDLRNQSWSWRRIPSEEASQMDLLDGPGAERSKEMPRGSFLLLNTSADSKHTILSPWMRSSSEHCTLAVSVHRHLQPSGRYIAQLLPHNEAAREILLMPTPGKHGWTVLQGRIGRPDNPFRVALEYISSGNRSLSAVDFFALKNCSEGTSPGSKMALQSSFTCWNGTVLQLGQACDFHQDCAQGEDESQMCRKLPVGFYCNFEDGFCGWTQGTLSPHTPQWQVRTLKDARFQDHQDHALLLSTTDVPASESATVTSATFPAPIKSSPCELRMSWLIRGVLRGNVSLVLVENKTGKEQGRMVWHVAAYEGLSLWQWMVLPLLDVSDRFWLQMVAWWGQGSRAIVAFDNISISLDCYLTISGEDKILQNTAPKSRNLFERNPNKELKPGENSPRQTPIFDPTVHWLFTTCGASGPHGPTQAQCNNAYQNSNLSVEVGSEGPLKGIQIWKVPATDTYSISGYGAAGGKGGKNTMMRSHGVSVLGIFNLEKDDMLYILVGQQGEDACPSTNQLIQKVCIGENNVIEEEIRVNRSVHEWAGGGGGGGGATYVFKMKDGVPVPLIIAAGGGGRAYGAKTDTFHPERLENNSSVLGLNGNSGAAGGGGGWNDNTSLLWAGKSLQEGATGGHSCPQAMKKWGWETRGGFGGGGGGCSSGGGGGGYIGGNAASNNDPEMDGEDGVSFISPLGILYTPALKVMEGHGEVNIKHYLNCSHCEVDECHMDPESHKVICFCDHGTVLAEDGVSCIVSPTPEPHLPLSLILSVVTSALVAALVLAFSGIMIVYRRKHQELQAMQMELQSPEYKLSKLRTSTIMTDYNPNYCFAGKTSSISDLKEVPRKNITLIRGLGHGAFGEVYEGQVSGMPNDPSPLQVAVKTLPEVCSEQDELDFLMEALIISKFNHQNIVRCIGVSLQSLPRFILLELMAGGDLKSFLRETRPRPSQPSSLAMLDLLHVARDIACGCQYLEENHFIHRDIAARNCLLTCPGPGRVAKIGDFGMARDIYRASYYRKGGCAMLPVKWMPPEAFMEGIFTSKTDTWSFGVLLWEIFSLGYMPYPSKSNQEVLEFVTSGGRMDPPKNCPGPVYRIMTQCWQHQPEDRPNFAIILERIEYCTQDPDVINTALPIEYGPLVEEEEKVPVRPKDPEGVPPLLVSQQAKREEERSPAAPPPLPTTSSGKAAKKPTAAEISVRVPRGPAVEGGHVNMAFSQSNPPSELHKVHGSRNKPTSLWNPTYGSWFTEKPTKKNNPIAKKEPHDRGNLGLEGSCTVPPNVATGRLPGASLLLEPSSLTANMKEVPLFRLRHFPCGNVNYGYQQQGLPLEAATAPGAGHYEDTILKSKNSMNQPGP
T2 sequence (O60674 whole entry): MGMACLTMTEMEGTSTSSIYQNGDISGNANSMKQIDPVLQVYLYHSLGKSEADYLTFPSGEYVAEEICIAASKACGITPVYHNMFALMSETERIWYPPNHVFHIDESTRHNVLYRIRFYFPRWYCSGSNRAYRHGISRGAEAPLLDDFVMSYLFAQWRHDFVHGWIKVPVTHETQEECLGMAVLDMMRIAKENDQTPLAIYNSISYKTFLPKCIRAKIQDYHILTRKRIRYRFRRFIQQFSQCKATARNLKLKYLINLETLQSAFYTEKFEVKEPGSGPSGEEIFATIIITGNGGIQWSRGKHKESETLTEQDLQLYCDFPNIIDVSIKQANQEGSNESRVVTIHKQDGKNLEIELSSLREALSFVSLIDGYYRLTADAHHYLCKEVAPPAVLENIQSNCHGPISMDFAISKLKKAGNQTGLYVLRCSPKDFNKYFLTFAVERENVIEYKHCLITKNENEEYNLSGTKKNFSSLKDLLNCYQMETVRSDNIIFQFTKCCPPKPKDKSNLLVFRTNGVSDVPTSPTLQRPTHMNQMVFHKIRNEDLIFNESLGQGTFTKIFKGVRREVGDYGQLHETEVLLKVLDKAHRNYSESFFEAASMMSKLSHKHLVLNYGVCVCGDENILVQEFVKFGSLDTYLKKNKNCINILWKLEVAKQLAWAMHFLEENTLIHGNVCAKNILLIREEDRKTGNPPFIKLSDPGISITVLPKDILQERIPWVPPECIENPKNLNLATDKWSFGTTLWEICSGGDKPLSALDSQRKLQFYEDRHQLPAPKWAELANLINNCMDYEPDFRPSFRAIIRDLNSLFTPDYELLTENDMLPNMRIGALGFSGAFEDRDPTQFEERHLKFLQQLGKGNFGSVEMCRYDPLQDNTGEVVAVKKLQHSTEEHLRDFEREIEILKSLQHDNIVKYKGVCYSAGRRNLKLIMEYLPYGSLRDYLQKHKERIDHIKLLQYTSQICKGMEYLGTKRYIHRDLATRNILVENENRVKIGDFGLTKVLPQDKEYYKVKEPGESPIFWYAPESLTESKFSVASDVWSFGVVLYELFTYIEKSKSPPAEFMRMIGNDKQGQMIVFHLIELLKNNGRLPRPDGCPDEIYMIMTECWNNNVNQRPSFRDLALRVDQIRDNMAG

On to `CS(=O)(=O)Nc1ccc(-c2ccc3cnc(Nc4cccc(N5CCOCC5)c4)nn23)cc1` [Example 182, N-{4-[2-(3-Morpholin-4-yl-phenylamino)-pyrrolo[2,1-f][1,2,4]triazin-7-yl]-phenyl}-methanesulfonamide], for which the IC50 in test [1] (ALK Kinase Inhibition) was 100 to 1000 nM; in test [2] (JAK2 Kinase Inhibition), less than 100 nM.
As to `CC(C)(C)NS(=O)(=O)c1cccc(-c2ccc3cnc(Nc4cccc(OCCN5CCOCC5)c4)nn23)c1` [Example 1001, N-tert-Butyl-3-{2-[3-(2-morpholin-4-yl-ethoxy)-phenylamino]-pyrrolo[2,1-f][1,2,4]triazin-7-yl}-benzenesulfonamide], the results for the IC50 in test [1] (setting [3]) and in test [2] (setting [4]) were 100 to 1000 nM and less than 100 nM, respectively.
The corresponding values for `COc1c(Nc2ncc3ccc(-c4ccccc4N(C)S(C)(=O)=O)n3n2)cccc1C(=O)N1CCN(C)CC1` [Example 1230, N-(2-{2-[2-Methoxy-3-(4-methyl-piperazine-1-carbonyl)-phenylamino]-pyrrolo[2,1-f][1,2,4]triazin-7-yl}-phenyl)-N-methyl-methanesulfonamide] are 100 to 1000 nM and greater than 10000 nM.
The corresponding values for `COc1cc(C2CCCN(C)C2)ccc1Nc1ncc2ccc(-c3ccccc3OC)n2n1` (stereo not shown) [Example 805, [2-Methoxy-4-(1-methyl-piperidin-3-yl)-phenyl]-[7-(2-methoxy-phenyl)-pyrrolo[2,1-f][1,2,4]triazin-2-yl]-amine] are less than 100 nM and 100 to 1000 nM.
Turning to `CCS(=O)(=O)Nc1cccc(-c2ccc3cnc(Nc4ccc(N5CCOCC5)cc4)nn23)c1` [Example 416, Ethanesulfonic acid {3-[2-(4-morpholin-4-yl-phenylamino)-pyrrolo[2,1-f][1,2,4]triazin-7-yl]-phenyl}-amide], the IC50 in test [1] (ALK Kinase Inhibition) was 100 to 1000 nM; in test [2] (JAK2 Kinase Inhibition), less than 100 nM.
Consider `COc1ccc(-c2ccc3cnc(Nc4ccc5ncn(C)c5c4)nn23)cn1` [Example 1307, [7-(6-Methoxy-pyridin-3-yl)-pyrrolo[2,1-f][1,2,4]triazin-2-yl]-(3-methyl-3H-benzimidazol-5-yl)-amine], for which the IC50 in test [1] (setting [3]) was 1000 to 10000 nM; in test [2] (setting [4]), less than 100 nM.
Regarding `CC(C)(C)NS(=O)(=O)c1cccc(-c2ccc3cnc(Nc4ccc5scnc5c4)nn23)c1` [Example 575, 3-[2-(Benzothiazol-5-ylamino)-pyrrolo[2,1-f][1,2,4]triazin-7-yl]-N-tert-butyl-benzenesulfonamide], the IC50 in test [1] (setting [3]) is 1000 to 10000 nM; in test [2] (setting [4]), less than 100 nM.
As to `CC1(C)C(=O)Nc2cc(Nc3ncc4ccc(-c5ccccn5)n4n3)ccc21` [Example 1563, 3,3-Dimethyl-6-(7-pyridin-2-yl-pyrrolo[2,1-f][1,2,4]triazin-2-ylamino)-1,3-dihydro-indol-2-one], the IC50 was 100 to 1000 nM in test [1] (ALK Kinase Inhibition) and less than 100 nM in test [2] (JAK2 Kinase Inhibition).
As to `COc1cc(N(C)C(=O)CN2CCN(C)CC2)ccc1Nc1ncc2ccc(-c3ccccc3OC)n2n1` [Example 474, N-{3-Methoxy-4-[7-(2-methoxy-phenyl)-pyrrolo[2,1-f][1,2,4]triazin-2-ylamino]-phenyl}-N-methyl-2-(4-methyl-piperazin-1-yl)-acetamide], the IC50 was less than 100 nM in test [1] (setting [3]) and 1000 to 10000 nM in test [2] (setting [4]).
For `COc1cc(CN2CCN(C(=O)CNC(=O)OC(C)(C)C)CC2)ccc1Nc1ncc2ccc(-c3ccccc3OC)n2n1` [Example 1242, [2-(4-{3-Methoxy-4-[7-(2-methoxy-phenyl)-pyrrolo[2,1-f][1,2,4]triazin-2-ylamino]-benzyl}-piperazin-1-yl)-2-oxo-ethyl]-carbamic acid tert-butyl ester] the same measures were 100 to 1000 nM and 100 to 1000 nM.
Consider `COc1cc(N2CCC(F)(F)CC2)ccc1Nc1ncc2ccc(-c3ccccc3N(C)S(C)(=O)=O)n2n1` [Example 1469, N-(2-{2-[4-(4,4-Difluoro-piperidin-1-yl)-2-methoxy-phenylamino]-pyrrolo[2,1-f][1,2,4]triazin-7-yl}-phenyl)-N-methyl-methanesulfonamide], for which the IC50 in test [1] (ALK Kinase Inhibition) was less than 100 nM; in test [2] (JAK2 Kinase Inhibition) it was 100 to 1000 nM.

The record behind these values is patent publication US8471005B2 (Cephalon, Inc., priority 2008, dated 2013).
